# Test results published in patent US20070078172A1, “MAO-B INHIBITORS USEFUL FOR TREATING OBESITY” (JENRIN DISCOVERY, priority 2005, published 2007).
# Assays:
# Plasma leptin = Plasma leptin levels by commercial radioimmunoassay kit; assay type: in vivo, rat; details: rats, 10.0 mg/kg orally once daily, end of 14 week study, vs control
# Protocol: (§1) Single-housed rats weighing 230-350 grams at the start of the experiment were provided free access to laboratory rodent chow pellets and tap water. Rats were divided into two groups, eight rats per group, matched for food intake and body weight over a two week baseline period. […] The second group of rats (control rats) was similarly administered drug vehicle (0.25% methyl cellulose solution). Body weight and food intake were measured once a week for 14 weeks.
# At the end of the experiment, rats were killed by exposure to carbon dioxide. Blood was collected by cardiac puncture, and rats were shaved and eviscerated. Retroperitoneal white adipose tissue, epidydimal white adipose tissue, adrenal gland, liver, kidney and testes were rapidly dissected and weighed. Plasma leptin levels were measured using a commercial radioimmunoassay kit.
# [1] = Terminal carcass composition (lipid, water, fat free dry weight); assay type: in vivo, rat; details: 10.0 mg/kg orally once daily
# Protocol: as §1
# Terminal carcass composition was measured. Shaved, eviscerated rats were coarsely ground and dried to a constant weight at 70° C. Dehydrated carcasses were finely ground in a blender. Lipid was extracted from a homogeneous sample with petroleum ether. Water and lipid contents were determined gravimetrically, and the remaining carcass component was termed fat free dry weight.
# [2] = Terminal tissue and organ weights (fat pads, adrenal gland, liver, kidney, testes); details: 10.0 mg/kg orally once daily, end of 14 week study
# [3] = Body weight and food intake in rats dosed for 14 weeks; assay type: in vivo, rat
# Protocol: as §1
compound,measurement,setting,value
C#CCN(C)[C@H](C)Cc1ccccc1 [L-selegiline],plasma leptin levels reduced,Plasma leptin,41%
same,adipose tissue gain less than that of untreated control rats,[1]; 14 weeks,94%
same,share of the overall 34 gram weight loss accounted for by body fat reduction,"[1]; rats, 14 weeks",94%
same,lean body mass,"[1]; rats, terminal carcass",no reduction
same,whole carcass water content,"[1]; rats, terminal carcass",no reduction
same,epidydimal fat pad weighed less than in control rats,[2],23%
same,retroperitoneal fat pad weighed less than in control rats,[2],27%
same,"weight of non-fat organs (adrenal gland, liver, kidney, testes)",[2]; rats,did not weigh less
same,lower weight gain compared to control rats,"[3]; 10.0 mg/kg L-selegiline hydrochloride orally by gavage once daily, 14 week study",14%
same,weight gain less than untreated counterparts,"[3]; 10.0 mg/kg orally once daily, 14 week study",approximately 34 g
same,food intake versus control group,"[3]; 10.0 mg/kg orally once daily, 14 weeks",comparable
